{"source": "patent US9340590B2", "about": "(priority 2011, dated 2016)", "key": {"hNav1.7": {"biological_target": "hNav1.7 (Homo sapiens, UniProt Q15858)", "sequence (Q15858 whole entry, looked up)": "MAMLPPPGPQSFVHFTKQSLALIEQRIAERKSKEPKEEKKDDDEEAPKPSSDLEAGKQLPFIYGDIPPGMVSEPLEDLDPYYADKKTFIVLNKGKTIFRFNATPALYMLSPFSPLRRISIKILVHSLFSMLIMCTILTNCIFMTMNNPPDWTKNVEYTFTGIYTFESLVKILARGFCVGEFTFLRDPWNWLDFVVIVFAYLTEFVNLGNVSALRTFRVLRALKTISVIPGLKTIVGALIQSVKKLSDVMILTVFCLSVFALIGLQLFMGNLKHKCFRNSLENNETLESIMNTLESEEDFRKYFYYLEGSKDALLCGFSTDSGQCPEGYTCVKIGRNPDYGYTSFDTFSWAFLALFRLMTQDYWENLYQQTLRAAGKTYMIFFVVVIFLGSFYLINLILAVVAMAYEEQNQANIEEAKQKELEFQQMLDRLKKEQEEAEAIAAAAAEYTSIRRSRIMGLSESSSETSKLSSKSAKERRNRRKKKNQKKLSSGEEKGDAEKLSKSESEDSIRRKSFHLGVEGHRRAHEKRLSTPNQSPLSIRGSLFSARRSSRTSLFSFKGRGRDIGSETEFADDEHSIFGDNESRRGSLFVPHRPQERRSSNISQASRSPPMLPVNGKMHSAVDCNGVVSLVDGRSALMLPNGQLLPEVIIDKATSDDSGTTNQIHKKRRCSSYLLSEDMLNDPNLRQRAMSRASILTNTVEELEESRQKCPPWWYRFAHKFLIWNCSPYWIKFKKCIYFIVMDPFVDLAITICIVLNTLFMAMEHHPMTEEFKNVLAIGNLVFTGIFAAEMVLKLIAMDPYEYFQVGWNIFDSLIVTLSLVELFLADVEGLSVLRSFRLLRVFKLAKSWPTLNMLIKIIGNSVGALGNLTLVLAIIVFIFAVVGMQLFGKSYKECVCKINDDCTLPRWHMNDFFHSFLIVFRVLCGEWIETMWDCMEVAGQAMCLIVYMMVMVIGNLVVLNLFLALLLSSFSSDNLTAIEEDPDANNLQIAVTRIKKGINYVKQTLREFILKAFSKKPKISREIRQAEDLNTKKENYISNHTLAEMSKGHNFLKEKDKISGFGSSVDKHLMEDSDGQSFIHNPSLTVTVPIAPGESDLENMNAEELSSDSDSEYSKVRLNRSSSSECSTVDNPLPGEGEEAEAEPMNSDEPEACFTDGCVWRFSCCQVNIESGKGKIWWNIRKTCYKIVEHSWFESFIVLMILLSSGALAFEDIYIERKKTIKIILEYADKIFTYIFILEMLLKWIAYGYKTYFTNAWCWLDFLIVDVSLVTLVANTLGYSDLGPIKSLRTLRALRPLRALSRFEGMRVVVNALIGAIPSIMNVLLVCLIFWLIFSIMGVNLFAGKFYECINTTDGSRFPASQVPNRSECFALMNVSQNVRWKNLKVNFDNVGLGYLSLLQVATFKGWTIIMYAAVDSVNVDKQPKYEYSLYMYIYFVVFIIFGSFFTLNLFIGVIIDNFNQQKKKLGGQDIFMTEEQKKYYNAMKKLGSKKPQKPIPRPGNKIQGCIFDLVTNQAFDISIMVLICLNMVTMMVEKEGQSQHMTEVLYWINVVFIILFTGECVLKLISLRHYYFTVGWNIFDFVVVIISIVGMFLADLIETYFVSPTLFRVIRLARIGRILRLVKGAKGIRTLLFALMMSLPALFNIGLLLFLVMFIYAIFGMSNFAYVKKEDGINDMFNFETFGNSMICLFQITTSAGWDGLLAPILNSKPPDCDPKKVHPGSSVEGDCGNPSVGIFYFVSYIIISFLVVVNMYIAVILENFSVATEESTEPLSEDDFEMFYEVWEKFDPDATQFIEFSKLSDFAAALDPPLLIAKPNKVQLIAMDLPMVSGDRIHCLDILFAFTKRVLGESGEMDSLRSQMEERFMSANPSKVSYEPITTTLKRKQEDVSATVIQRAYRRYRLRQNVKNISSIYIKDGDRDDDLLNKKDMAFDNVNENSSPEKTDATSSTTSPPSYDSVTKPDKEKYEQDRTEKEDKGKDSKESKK", "assay": "cell-based", "settings": "Nav1.7 Use IC50"}, "hNav1.5": {"biological_target": "hNav1.5 (Homo sapiens, UniProt Q14524)", "sequence (Q14524 whole entry, looked up)": "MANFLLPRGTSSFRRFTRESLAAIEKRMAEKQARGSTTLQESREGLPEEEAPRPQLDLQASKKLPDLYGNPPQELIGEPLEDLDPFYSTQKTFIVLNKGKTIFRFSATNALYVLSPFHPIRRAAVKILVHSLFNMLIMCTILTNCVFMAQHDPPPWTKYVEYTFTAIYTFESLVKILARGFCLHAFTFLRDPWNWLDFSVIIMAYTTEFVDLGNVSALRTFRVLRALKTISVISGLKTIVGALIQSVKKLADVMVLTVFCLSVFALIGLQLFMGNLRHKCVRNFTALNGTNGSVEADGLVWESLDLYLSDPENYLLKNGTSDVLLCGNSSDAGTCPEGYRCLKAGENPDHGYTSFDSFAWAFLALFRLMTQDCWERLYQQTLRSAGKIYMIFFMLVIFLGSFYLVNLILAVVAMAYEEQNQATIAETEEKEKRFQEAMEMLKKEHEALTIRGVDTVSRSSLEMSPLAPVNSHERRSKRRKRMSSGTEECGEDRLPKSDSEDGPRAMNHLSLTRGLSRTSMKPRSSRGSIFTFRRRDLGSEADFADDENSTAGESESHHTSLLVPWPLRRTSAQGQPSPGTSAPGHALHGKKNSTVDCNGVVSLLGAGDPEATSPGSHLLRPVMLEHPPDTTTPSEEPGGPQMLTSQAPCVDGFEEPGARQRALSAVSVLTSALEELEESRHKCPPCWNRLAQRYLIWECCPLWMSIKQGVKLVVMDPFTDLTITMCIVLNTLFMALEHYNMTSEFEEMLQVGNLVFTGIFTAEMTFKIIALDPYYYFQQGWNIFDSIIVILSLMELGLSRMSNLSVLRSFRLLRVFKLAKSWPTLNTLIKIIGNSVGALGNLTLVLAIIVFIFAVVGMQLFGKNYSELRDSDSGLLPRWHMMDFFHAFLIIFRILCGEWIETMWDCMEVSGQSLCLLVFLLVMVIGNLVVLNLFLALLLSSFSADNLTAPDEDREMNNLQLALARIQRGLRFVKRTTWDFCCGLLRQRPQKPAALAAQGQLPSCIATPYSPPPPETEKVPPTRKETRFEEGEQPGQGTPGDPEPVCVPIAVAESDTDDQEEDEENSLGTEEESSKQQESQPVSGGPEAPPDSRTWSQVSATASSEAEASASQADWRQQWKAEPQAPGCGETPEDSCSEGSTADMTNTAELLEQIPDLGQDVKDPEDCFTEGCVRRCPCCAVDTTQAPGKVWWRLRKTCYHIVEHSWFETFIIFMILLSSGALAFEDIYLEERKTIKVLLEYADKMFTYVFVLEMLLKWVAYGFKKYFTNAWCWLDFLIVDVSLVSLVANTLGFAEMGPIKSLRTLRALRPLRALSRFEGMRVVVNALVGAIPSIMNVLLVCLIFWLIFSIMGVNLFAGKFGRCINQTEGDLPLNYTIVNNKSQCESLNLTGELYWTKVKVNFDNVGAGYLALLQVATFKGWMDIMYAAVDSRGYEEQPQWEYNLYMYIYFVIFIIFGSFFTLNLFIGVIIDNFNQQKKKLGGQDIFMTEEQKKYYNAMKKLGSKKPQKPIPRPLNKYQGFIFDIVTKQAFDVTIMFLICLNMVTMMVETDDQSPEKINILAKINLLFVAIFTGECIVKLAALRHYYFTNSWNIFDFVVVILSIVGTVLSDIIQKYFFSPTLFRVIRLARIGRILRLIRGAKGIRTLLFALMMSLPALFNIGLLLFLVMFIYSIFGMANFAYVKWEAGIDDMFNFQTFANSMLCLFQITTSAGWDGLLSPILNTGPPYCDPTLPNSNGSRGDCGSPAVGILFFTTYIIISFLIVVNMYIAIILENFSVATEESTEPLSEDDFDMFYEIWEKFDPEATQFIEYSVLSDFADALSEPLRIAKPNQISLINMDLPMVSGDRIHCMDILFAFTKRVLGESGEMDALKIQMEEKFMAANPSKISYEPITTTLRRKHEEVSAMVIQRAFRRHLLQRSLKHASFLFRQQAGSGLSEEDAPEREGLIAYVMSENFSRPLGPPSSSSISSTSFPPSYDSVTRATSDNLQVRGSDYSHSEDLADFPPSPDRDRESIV", "assay": "cell-based"}}, "note": "Positions of bridges follow the written chain, without caps; N, C: chain ends. Non-standard residues stand in square brackets, D forms with d. Residues, ends and D or L forms follow the SMILES beside them. Phe(4-COOH) = N[C@@H](Cc1ccc(C(=O)O)cc1)C(=O)O; 2Pal = N[C@@H](Cc1ccccn1)C(=O)O; 3Pal = N[C@@H](Cc1cccnc1)C(=O)O", "data": [{"smiles": "CC[C@H](C)[C@@H]1NC(=O)[C@@H]2CSSC[C@@H]3NC(=O)[C@H](C(C)C)NC(=O)[C@H](CC(C)C)NC(=O)[C@H](CC(N)=O)NC(=O)[C@@H]4CCCN4C(=O)[C@H](Cc4ccccn4)NC(=O)[C@H](CSSC[C@H](NC(=O)[C@@H](N)CC(=O)O)C(=O)N[C@@H](CC(C)C)C(=O)NCC(=O)N[C@@H](Cc4ccccc4)C(=O)N[C@@H](CCSC)C(=O)N[C@@H](CCCNC(=N)N)C(=O)N[C@@H](CCCCN)C(=O)N2)NC(=O)[C@H](CSSC[C@@H](C(=O)N[C@@H](CCCCN)C(=O)N[C@@H](Cc2ccc(O)cc2)C(=O)N[C@H](C(=O)N[C@@H](Cc2ccccc2)C(N)=O)C(C)C)NC(=O)[C@H](Cc2c[nH]c4ccccc24)NC(=O)[C@H](CCCCN)NC(=O)[C@H](Cc2cnc[nH]2)NC(=O)[C@H]([C@@H](C)O)NC(=O)[C@H](CCCNC(=N)N)NC(=O)[C@H](CO)NC3=O)NC(=O)[C@H](CCCCN)NC(=O)[C@H](CC(=O)O)NC(=O)[C@H](CC(N)=O)NC(=O)[C@H](CC(=O)O)NC(=O)[C@@H]2CCCN2C1=O", "note": "[[2PAL18]GpTx-1(1-34)] (H-DCLGFMRKCIPDNDKCC[2Pal]PNLVCSRTHKWCKYVF-NH2; disulfide 2-17, 9-23, 16-30)", "values": [{"measurement": "IC50", "setting": "hNav1.7", "value": 3, "unit": "nM"}, {"measurement": "IC50", "setting": "hNav1.5", "value": 13700, "unit": "nM"}]}, {"smiles": "CC[C@H](C)[C@@H]1NC(=O)[C@@H]2CSSC[C@@H]3NC(=O)[C@H](Cc4ccccn4)NC(=O)[C@H](CC(C)C)NC(=O)[C@H](CC(N)=O)NC(=O)[C@@H]4CCCN4C(=O)[C@H](CCCNC(=N)N)NC(=O)[C@H](CSSC[C@H](NC(=O)[C@@H](N)CC(=O)O)C(=O)N[C@@H](CC(C)C)C(=O)NCC(=O)N[C@@H](Cc4ccccc4)C(=O)N[C@@H](CCSC)C(=O)N[C@@H](CCCNC(=N)N)C(=O)N[C@@H](CCCCN)C(=O)N2)NC(=O)[C@H](CSSC[C@@H](C(=O)N[C@@H](CCCCN)C(=O)N[C@@H](Cc2ccc(O)cc2)C(=O)N[C@H](C(=O)N[C@@H](Cc2ccccc2)C(N)=O)C(C)C)NC(=O)[C@H](Cc2c[nH]c4ccccc24)NC(=O)[C@H](CCCCN)NC(=O)[C@H](Cc2c[nH]cn2)NC(=O)[C@H]([C@@H](C)O)NC(=O)[C@H](CCCNC(=N)N)NC(=O)[C@H](CO)NC3=O)NC(=O)[C@H](CCCCN)NC(=O)[C@H](CC(=O)O)NC(=O)[C@H](CC(N)=O)NC(=O)[C@H](CC(=O)O)NC(=O)[C@@H]2CCCN2C1=O", "note": "[[2PAL22]GpTx-1(1-34)] (H-DCLGFMRKCIPDNDKCCRPNL[2Pal]CSRTHKWCKYVF-NH2; disulfide 2-17, 9-23, 16-30)", "values": [{"measurement": "IC50", "setting": "hNav1.7", "value": 7, "unit": "nM"}, {"measurement": "IC50", "setting": "hNav1.5", "value": 16000, "unit": "nM"}]}, {"smiles": "CC[C@H](C)[C@@H]1NC(=O)[C@@H]2CSSC[C@@H]3NC(=O)[C@H](C(C)C)NC(=O)[C@H](CC(C)C)NC(=O)[C@H](CC(N)=O)NC(=O)[C@@H]4CCCN4C(=O)[C@H](CCCNC(=N)N)NC(=O)[C@H](CSSC[C@H](NC(=O)[C@@H](N)CC(=O)O)C(=O)N[C@@H](CC(C)C)C(=O)NCC(=O)N[C@@H](Cc4ccccc4)C(=O)N[C@@H](CCSC)C(=O)N[C@@H](CCCNC(=N)N)C(=O)N[C@@H](CCCCN)C(=O)N2)NC(=O)[C@H](CSSC[C@@H](C(=O)N[C@@H](CCCCN)C(=O)N[C@@H](Cc2ccccn2)C(=O)N[C@H](C(=O)N[C@@H](Cc2ccccc2)C(N)=O)C(C)C)NC(=O)[C@H](Cc2c[nH]c4ccccc24)NC(=O)[C@H](CCCCN)NC(=O)[C@H](Cc2c[nH]cn2)NC(=O)[C@H]([C@@H](C)O)NC(=O)[C@H](CCCNC(=N)N)NC(=O)[C@H](CO)NC3=O)NC(=O)[C@H](CCCCN)NC(=O)[C@H](CC(=O)O)NC(=O)[C@H](CC(N)=O)NC(=O)[C@H](CC(=O)O)NC(=O)[C@@H]2CCCN2C1=O", "note": "[[2PAL32]GpTx-1(1-34)] (H-DCLGFMRKCIPDNDKCCRPNLVCSRTHKWCK[2Pal]VF-NH2; disulfide 2-17, 9-23, 16-30)", "values": [{"measurement": "IC50", "setting": "hNav1.7", "value": 35, "unit": "nM"}, {"measurement": "IC50", "setting": "hNav1.5", "value": "> 10000", "unit": "nM"}]}, {"smiles": "CC[C@H](C)[C@@H]1NC(=O)[C@@H]2CSSC[C@@H]3NC(=O)[C@H](C(C)C)NC(=O)[C@H](CC(C)C)NC(=O)[C@H](CC(N)=O)NC(=O)[C@@H]4CCCN4C(=O)[C@H](CCCNC(=N)N)NC(=O)[C@H](CSSC[C@H](NC(=O)[C@@H](N)CC(=O)O)C(=O)N[C@@H](CC(C)C)C(=O)NCC(=O)N[C@@H](Cc4ccccc4)C(=O)N[C@@H](CCSC)C(=O)N[C@@H](CCCNC(=N)N)C(=O)N[C@@H](CCCCN)C(=O)N2)NC(=O)[C@H](CSSC[C@@H](C(=O)N[C@@H](CCCCN)C(=O)N[C@@H](Cc2ccc(O)cc2)C(=O)N[C@@H](Cc2ccccn2)C(=O)N[C@@H](Cc2ccccc2)C(N)=O)NC(=O)[C@H](Cc2c[nH]c4ccccc24)NC(=O)[C@H](CCCCN)NC(=O)[C@H](Cc2c[nH]cn2)NC(=O)[C@H]([C@@H](C)O)NC(=O)[C@H](CCCNC(=N)N)NC(=O)[C@H](CO)NC3=O)NC(=O)[C@H](CCCCN)NC(=O)[C@H](CC(=O)O)NC(=O)[C@H](CC(N)=O)NC(=O)[C@H](CC(=O)O)NC(=O)[C@@H]2CCCN2C1=O", "note": "[[2PAL33]GpTx-1(1-34)] (H-DCLGFMRKCIPDNDKCCRPNLVCSRTHKWCKY[2Pal]F-NH2; disulfide 2-17, 9-23, 16-30)", "values": [{"measurement": "IC50", "setting": "hNav1.7", "value": 10, "unit": "nM"}, {"measurement": "IC50", "setting": "hNav1.5", "value": 3460, "unit": "nM"}]}, {"smiles": "CC[C@H](C)[C@@H]1NC(=O)[C@@H]2CSSC[C@@H]3NC(=O)[C@H](C(C)C)NC(=O)[C@H](CC(C)C)NC(=O)[C@H](CC(N)=O)NC(=O)[C@@H]4CCCN4C(=O)[C@H](CCCNC(=N)N)NC(=O)[C@H](CSSC[C@H](NC(=O)[C@@H](N)CC(=O)O)C(=O)N[C@@H](CC(C)C)C(=O)NCC(=O)N[C@@H](Cc4cccnc4)C(=O)N[C@@H](Cc4ccccc4)C(=O)N[C@@H](CCCNC(=N)N)C(=O)N[C@@H](CCCCN)C(=O)N2)NC(=O)[C@H](CSSC[C@@H](C(=O)N[C@@H](CCCCN)C(=O)N[C@@H](Cc2ccc(O)cc2)C(=O)N[C@H](C(=O)N[C@@H](Cc2ccccc2)C(N)=O)C(C)C)NC(=O)[C@H](Cc2c[nH]c4ccccc24)NC(=O)[C@H](CCCCN)NC(=O)[C@H](Cc2c[nH]cn2)NC(=O)[C@H]([C@@H](C)O)NC(=O)[C@H](CCCNC(=N)N)NC(=O)[C@H](CO)NC3=O)NC(=O)[C@H](CCCCN)NC(=O)[C@H](CC(=O)O)NC(=O)[C@H](CC(N)=O)NC(=O)[C@H](CC(=O)O)NC(=O)[C@@H]2CCCN2C1=O", "note": "[[3Pal5;Phe6]GpTx-1(1-34)] (H-DCLG[3Pal]FRKCIPDNDKCCRPNLVCSRTHKWCKYVF-NH2; disulfide 2-17, 9-23, 16-30)", "values": [{"measurement": "IC50", "setting": "hNav1.7", "value": 63, "unit": "nM"}, {"measurement": "IC50", "setting": "hNav1.5", "value": "> 10000", "unit": "nM"}]}, {"smiles": "CC[C@H](C)[C@@H]1NC(=O)[C@@H]2CSSC[C@@H]3NC(=O)[C@H](C(C)C)NC(=O)[C@H](CC(C)C)NC(=O)[C@H](CC(N)=O)NC(=O)[C@@H]4CCCN4C(=O)[C@H](CCCNC(=N)N)NC(=O)[C@H](CSSC[C@H](NC(=O)[C@@H](N)CC(=O)O)C(=O)N[C@@H](CC(C)C)C(=O)NCC(=O)N[C@@H](Cc4ccccc4)C(=O)N[C@@H](CCSC)C(=O)N[C@@H](CCCNC(=N)N)C(=O)N[C@@H](CCCCN)C(=O)N2)NC(=O)[C@H](CSSC[C@@H](C(=O)N[C@@H](CCCCN)C(=O)N[C@@H](Cc2ccc(O)cc2)C(=O)N[C@H](C(=O)N[C@@H](Cc2ccccc2)C(N)=O)C(C)C)NC(=O)[C@H](Cc2c[nH]c4ccccc24)NC(=O)[C@H](CCCCN)NC(=O)[C@H](Cc2c[nH]cn2)NC(=O)[C@H](Cc2ccc(C(=O)O)cc2)NC(=O)[C@H](CCCNC(=N)N)NC(=O)[C@H](CO)NC3=O)NC(=O)[C@H](CCCCN)NC(=O)[C@H](CC(=O)O)NC(=O)[C@H](CC(N)=O)NC(=O)[C@H](CC(=O)O)NC(=O)[C@@H]2CCCN2C1=O", "note": "[[4CO2-F26]GpTx-1(1-34)] (H-DCLGFMRKCIPDNDKCCRPNLVCSR[Phe(4-COOH)]HKWCKYVF-NH2; disulfide 2-17, 9-23, 16-30)", "values": [{"measurement": "IC50", "setting": "hNav1.7", "value": 65, "unit": "nM"}, {"measurement": "IC50", "setting": "hNav1.5", "value": "> 10000", "unit": "nM"}]}, {"smiles": "CC[C@H](C)[C@@H]1NC(=O)[C@@H]2CSSC[C@@H]3NC(=O)[C@H](C(C)C)NC(=O)[C@H](CC(C)C)NC(=O)[C@H](CC(N)=O)NC(=O)[C@@H]4CCCN4C(=O)[C@H](CCCNC(=N)N)NC(=O)[C@H](CSSC[C@H](NC(=O)[C@@H](N)CC(=O)O)C(=O)N[C@@H](CC(C)C)C(=O)NCC(=O)N[C@@H](Cc4ccccc4)C(=O)N[C@@H](CCSC)C(=O)N[C@@H](CCCNC(=N)N)C(=O)N[C@@H](CCCCN)C(=O)N2)NC(=O)[C@H](CSSC[C@@H](C(=O)N[C@@H](CCCCN)C(=O)N[C@@H](Cc2ccc(O)cc2)C(=O)N[C@@H](Cc2ccc(C(=O)O)cc2)C(=O)N[C@@H](Cc2ccccc2)C(N)=O)NC(=O)[C@H](Cc2c[nH]c4ccccc24)NC(=O)[C@H](CCCCN)NC(=O)[C@H](Cc2c[nH]cn2)NC(=O)[C@H]([C@@H](C)O)NC(=O)[C@H](CCCNC(=N)N)NC(=O)[C@H](CO)NC3=O)NC(=O)[C@H](CCCCN)NC(=O)[C@H](CC(=O)O)NC(=O)[C@H](CC(N)=O)NC(=O)[C@H](CC(=O)O)NC(=O)[C@@H]2CCCN2C1=O", "note": "[[4CO2-F33]GpTx-1(1-34)] (H-DCLGFMRKCIPDNDKCCRPNLVCSRTHKWCKY[Phe(4-COOH)]F-NH2; disulfide 2-17, 9-23, 16-30)", "values": [{"measurement": "IC50", "setting": "hNav1.7", "value": 3, "unit": "nM"}, {"measurement": "IC50", "setting": "hNav1.5", "value": "> 10000", "unit": "nM"}]}, {"smiles": "CC[C@H](C)[C@@H]1NC(=O)[C@@H]2CSSC[C@@H]3NC(=O)[C@H](C(C)C)NC(=O)[C@H](CC(C)C)NC(=O)[C@H](CC(N)=O)NC(=O)[C@@H]4CCCN4C(=O)[C@H](CCCNC(=N)N)NC(=O)[C@H](CSSC[C@H](NC(=O)[C@@H](N)CC(=O)O)C(=O)N[C@@H](CC(C)C)C(=O)NCC(=O)NC(C)(C)C(=O)N[C@@H](CC(C)C)C(=O)N[C@@H](CCCNC(=N)N)C(=O)N[C@@H](CCCCN)C(=O)N2)NC(=O)[C@H](CSSC[C@@H](C(=O)N[C@@H](CCCCN)C(=O)N[C@@H](Cc2ccc(O)cc2)C(=O)N[C@H](C(=O)N[C@@H](Cc2ccccc2)C(N)=O)C(C)C)NC(=O)[C@H](Cc2c[nH]c4ccccc24)NC(=O)[C@H](CCCCN)NC(=O)[C@H](Cc2c[nH]cn2)NC(=O)[C@H]([C@@H](C)O)NC(=O)[C@H](CCCNC(=N)N)NC(=O)[C@H](CO)NC3=O)NC(=O)[C@H](CCCCN)NC(=O)[C@H](CC(=O)O)NC(=O)[C@H](CC(N)=O)NC(=O)[C@H](CC(=O)O)NC(=O)[C@@H]2CCCN2C1=O", "note": "[[Aib5;Leu6]GpTx-1(1-34)]", "values": [{"measurement": "IC50", "setting": "hNav1.7", "value": 20, "unit": "nM"}, {"measurement": "IC50", "setting": "hNav1.5", "value": "> 10000", "unit": "nM"}]}]}
